These results are taken from publication PMC6943638, “Lectin PLL3, a Novel Monomeric Member of the Seven-Bladed β-Propeller Lectin Family” (Molecules, 2019).

Starred links: 1 amine or outer side, 2 acyl side, 3 side chain; linkers in the order of their positions; H or OH if unused. Residues, ends and D or L forms follow the SMILES beside them. Suc = O=C(CCC(=O)[*:2])[*:1]

T1 sequence (Q7N8I7 entry or part of it): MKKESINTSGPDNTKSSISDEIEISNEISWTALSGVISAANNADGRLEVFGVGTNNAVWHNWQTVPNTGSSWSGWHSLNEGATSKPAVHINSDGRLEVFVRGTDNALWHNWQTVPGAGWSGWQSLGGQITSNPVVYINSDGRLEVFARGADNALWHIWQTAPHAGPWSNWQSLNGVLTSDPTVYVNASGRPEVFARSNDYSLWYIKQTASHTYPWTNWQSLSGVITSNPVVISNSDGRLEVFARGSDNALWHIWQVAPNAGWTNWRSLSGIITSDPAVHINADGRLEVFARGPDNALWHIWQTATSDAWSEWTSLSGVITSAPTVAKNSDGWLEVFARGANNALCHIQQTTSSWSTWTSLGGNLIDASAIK

One assay has as its target T1, PLL3 (Photorhabdus laumondii subsp. laumondii, UniProt Q7N8I7). As to the kind of experiment: Hemagglutination inhibition assay (PLL3 with erythrocytes of blood group O). Type of assay: cell-based. The conditions noted are these: PLL3 50 μM, blood group O erythrocytes; saccharide 100 to 0.1 mM. The procedure: For the hemagglutination inhibition assay, the PLL3 was mixed with serially diluted saccharides (L-fucose, αMeFuc, D-galactose, D-glucose, and 3-O-methyl-D-glucose) dissolved in PBS buffer, and mixtures were incubated for 15 min at room temperature. Subsequently, erythrocytes of blood group O were added into the mixture with following incubation for 15 min. The final concentration was 50 μM for the PLL3 and 10% (v/v) for erythrocytes. Concentrations of L-fucose and αMeFuc ranged from 50 to 0.05 mM. Concentrations of D-galactose, D-glucose, and 3-O-methyl-D-glucose ranged from 100 to 0.1 mM. Each sample was observed under the optical microscope (Olympus IX81 with camera DP72; 200x magnification; SW CellSens Dimension, Olympus corporation, Tokyo, Japan).
Turning to `O=C[C@H](O)[C@@H](O)[C@@H](O)[C@H](O)CO` [D-galactose], the inhibition of hemagglutination result is reported as “did not inhibit hemagglutination”.

Another assay concerns the target T1, PLL3. As to the kind of experiment: Glycan array screening with DyLight 488-labeled PLL3. It counts as binding. To be noted: glycan array signal of DyLight 488-labeled PLL3 per immobilized glycan or bacterial polysaccharide. The text has this: Purified PLL3 protein was labeled with DyLight 488 NHS Ester (Thermo Scientific, Rockford, MI, USA) according to the manual instructions of the manufacturer. The unbound dye was removed from the solution using the Zeba Spin Desalting Column (Thermo scientific). The labeled lectin was used for glycan array screening using a glycan microarray chip (Semiotik, Moscow, Russia; chip format OSPS280715; slide number 10085636) containing over 600 mammalian and bacterial glycans (all in hexaplicates). The glycan microarray chip was incubated in 1.0 mL of PBS buffer supplemented with 0.1% (v/v) Tween 20 and placed in a humid chamber for 15 min (37 °C, 40 rpm). Then, the buffer was replaced by 0.5 mL PLL3 (200 μg mL^−1) diluted in PBS buffer with 0.1% Tween 20 and 1% (w/v) bovine serum albumin (Serva, Germany). After incubation (90 min, 37 °C, 40 rpm), the chip was washed by decreasing concentrations of PBS with 0.1% Tween 20, followed by multiple immersions in ultrapure water. Subsequently, the chip was dried by air blow. Fluorescence was read with a scanner InnoScan 1100 AL (Innopsys, Carbonne, France) with a 488 nm laser at 20 °C. The data were analyzed with the software Mapix 8.2.2 and an online glycan chip converter (Semiotik, https://rakitko.shinyapps.io/semiotik). The relative fluorescent response of PLL3 binding was calculated from hexaplicates of each glycan immobilized onto the chip. Only glycans with a response three or more times higher than trehalose and concurrently with a signal-to-noise ratio higher than two were considered as significant binders.
On to `CC(=O)N[C@@H]1[C@@H](O)[C@H](O[C@@H]2O[C@H](CO)[C@@H](O)[C@H](O)[C@H]2NC(C)=O)[C@@H](CO)O[C@H]1NC(=O)C[C@H](N)C(=O)O` [GlcNAcb1-4GlcNAcb-Asn], for which the Median stood at 277.
For `CC(=O)N[C@H]1[C@H](OCCCN)O[C@H](CO)[C@@H](O[C@@H]2O[C@H](CO)[C@H](O)[C@H](O)[C@H]2O)[C@@H]1O` [Galb1-4GlcNAcb-sp8], the Median is reported as 184.
On the same count and under the same terms, to `CC(=O)N[C@@H]1[C@@H](O)[C@H](O[C@@H]2O[C@H](CO)[C@H](O)[C@H](O[C@H]3O[C@H](CO)[C@H](O)[C@H](O)[C@H]3NC(C)=O)[C@H]2O[C@@H]2O[C@@H](C)[C@@H](O)[C@@H](O)[C@@H]2O)[C@@H](CO)O[C@H]1O` [Atype2] belongs 158.
For `CC(=O)N[C@H]1[C@H]([C@H](O)[C@H](O)CO)OC(OC[C@H]2O[C@@H](O[C@H]3[C@H](O)[C@@H](NC(C)=O)C(O)O[C@@H]3CO)[C@H](O)[C@@H](O)[C@H]2O)(C(=O)O)C[C@@H]1O` (stereo partly shown) [6'SLN], the Median is given as 99.
The same measure, in the same setting: the same measure for `NCC(O)C(O)C(O)C(O)CO` (stereo not shown) [HOCH2(HOCH)4CH2NH2]: 293; for `OC[C@H]1O[C@H](O[C@H]2[C@@H](O)[C@@H](CO)OC(O)[C@@H]2O)[C@H](O)[C@@H](O)[C@H]1O` (stereo partly shown) [Bdi]: 134; for `CC(=O)N[C@H]1[C@@H](OC[C@H](N)C(=O)O)O[C@H](CO)[C@H](O)[C@@H]1O` [GalNAca1-OSer]: 208.
The same measure, in the same setting: the same measure for `CC(=O)N[C@@H]1C(O)C[C@](O[C@@H]2C(O)[C@H](O[C@@H]3C(CO)OC(NC(=O)CN)C(O)[C@H]3O)OC(CO)[C@@H]2O)(C(=O)O)OC1[C@H](O)[C@H](O)CO` (stereo partly shown) [3'SL-Gly]: 101; for `NCCOCCOCCOCCOCCOCCOCC(=O)NCCOC1OC(COC2OC(COC3OC(CO)C(O)C3OC3OC(CO)C(O)C3O)C(OC3OC(CO)C(O)C3OC3OC(CO)C(O)C3O)C2O)C(O)C1O` (stereo not shown): 220; for `CC(=O)N[C@H]1[C@@H](O[C@H]2[C@@H](O)[C@@H](CO)OC(O)[C@@H]2O[C@@H]2O[C@@H](C)[C@@H](O)[C@@H](O)[C@@H]2O)O[C@H](CO)[C@H](O)[C@@H]1O` (stereo partly shown) [Atri]: 167.
With `O=C[C@@H](O)[C@@H](O)[C@H](O)[C@H](O)COP(=O)(O)O` [M6P], the Median was determined as 148.
`CC(=O)N[C@H]1[C@H]([C@H](O)[C@H](O)CO)O[C@@](O[C@H](CO)[C@@H](O)[C@@H]2O[C@@](O[C@H](CO)[C@@H](O)[C@@H]3O[C@](O)(C(=O)O)C[C@H](O)[C@H]3NC(C)=O)(C(=O)O)C[C@H](O)[C@H]2NC(C)=O)(C(=O)O)C[C@@H]1O` [(Sia)3] showed a Median of 158.
As to `CC(=O)N[C@H]1[C@H]([C@H](O)[C@H](O)CO)O[C@@](O[C@H]2[C@@H](O)[C@@H](CO)O[C@@H](O[C@H]3[C@H](O)[C@@H](NC(C)=O)C(O)O[C@@H]3CO)[C@@H]2O)(C(=O)O)C[C@@H]1O` (stereo partly shown) [3'SLN], the Median is 43.
Still for that read-out and setting: the same measure for `COCC1OC(O)C(O)C(OC)C1O` (stereo not shown) [3,6-Me2Glc]: 74.
Compound `CC(=O)N[C@H]1[C@H]([C@H](O)[C@H](O)CO)OC(O)(C(=O)O)C[C@@H]1O` (stereo partly shown) [Sia] showed a Median of 112.

Staying with this assay, now noted: glycan array signal of DyLight 488-labeled PLL3 per printed glycan; Table S2, file PLU35_second_noheader.gpr.
Compound `CC(=O)N[C@H]1[C@H](O[C@H]2[C@@H](O)[C@@H](CO)O[C@@H](O[C@H]3[C@H](O)[C@@H](O)C(O)O[C@@H]3CO)[C@@H]2O)O[C@H](CO)[C@@H](O)[C@@H]1O[C@@H]1O[C@H](CO)[C@H](O)[C@H](O)[C@H]1O` (stereo partly shown) [LNT] came in with a Median of 349.
Laminaran came in with a Median of 417.
On to Chitosan, for which the Median was 1790.
The same measure, in the same setting: the same measure for `CC(=O)N[C@H]1[C@H](O[C@H]2[C@@H](O)[C@@H](CO)O[C@@H](O[C@H]3[C@H](O)[C@@H](O)C(O)O[C@@H]3CO)[C@@H]2O)O[C@H](CO)[C@@H](O)[C@@H]1O[C@@H]1O[C@H](CO)[C@H](O)[C@H](O[C@]2(C(=O)O)C[C@H](O)[C@@H](NC(C)=O)[C@H]([C@H](O)[C@H](O)CO)O2)[C@H]1O` (stereo partly shown) [LSTa]: 328.
The compound Laminarin displayed a Median of 954.
The same measure, in the same setting: to `OC[C@H]1O[C@H](O[C@H]2O[C@H](CO)[C@@H](O)[C@H](O)[C@H]2O)[C@H](O)[C@@H](O)[C@@H]1O` [Treh] belongs 2512; to Scleroglucan, 1150; to `O=P(O)(O)OC[C@H]1O[C@H](O)[C@H](O)[C@@H](O)[C@@H]1O` [G6P], 615.
As for `CCCCCn1ccc2ccccc21` [NpentylIndol], the Median amounted to 872.
Consider `CC(=O)N[C@H]1[C@H](O[C@H]2[C@@H](O)[C@@H](CO)O[C@@H](O[C@@H]([C@H](O)[C@@H](O)C=O)[C@H](O)CO)[C@@H]2O)O[C@H](CO[C@]2(C(=O)O)C[C@H](O)[C@@H](NC(C)=O)[C@H]([C@H](O)[C@H](O)CO)O2)[C@@H](O)[C@@H]1O[C@@H]1O[C@H](CO)[C@H](O)[C@H](O)[C@H]1O` [LSTb], for which the Median was 348.
The compound `NCC(=O)NCC(=O)NCC(=O)NCC(=O)NCC(=O)NCC(N)=O` [Gly6] displayed a Median of 530.
On the same count and under the same terms, to `OC[C@H]1O[C@@H](O[C@H]2[C@H](O)[C@@H](O)[C@H](O)O[C@@H]2CO)[C@H](O)[C@@H](O)[C@@H]1O` [cello] belongs 672; to Mannan, 480; to `C[C@@H]1O[C@@H](O[C@H]2[C@H](O[C@H]3[C@H](O)[C@@H](O)[C@H](O)O[C@@H]3CO)O[C@H](CO)[C@H](O)[C@@H]2O)[C@@H](O)[C@H](O)[C@@H]1O` [Htype6], 474.
Turning to `CC(C)C[C@H](NC(=O)CCC(=O)O)C(=O)N1CCC[C@H]1C(=O)N[C@@H](Cc1c[nH]c2ccccc12)C(=O)N[C@@H](Cc1ccc(O)cc1)C(=O)N[C@@H](CCCNC(=N)N)C(=O)N[C@@H](C)C(=O)N1CCC[C@H]1C(=O)N[C@@H](CCCCN)C(N)=O` [RhD] (Suc-LPWYRAPK-NH2), the Median stood at 563.
The same measure, in the same setting: the same measure for Curdlan: 1158.

For the next assay, the target named is T1, PLL3. As to the kind of experiment: Isothermal titration calorimetry (ITC). Type of assay: binding. To be noted: KD, stoichiometry fixed to 3, 25 °C. The procedure:
ITC experiments were carried out using an AutoITC200 calorimeter (Malvern, UK) at 25 °C. The purified lectin was dialyzed against 20 mM Tris/HCl, 150 mM NaCl, pH 7.5 buffer before measurements. Individual ligands (L-fucose, αMeFuc, D-galactose, D-glucose, 3-O-methyl-D-glucose, and decavalent fucosylated glycoclusters 4a and 4b) were dissolved in the same buffer. PLL3 (100 μM) in the cell was titrated by the successive addition (2.0 μL) of the ligand in the syringe (20 mM for monosaccharides, 1 mM for multivalent fucosides). Experiments with monosaccharides were performed at stirring 750 rpm with a reference power of 10 μcal s^−1. Experiments with multivalent fucosides were performed at stirring 500 rpm with a reference power of 6 μcal s^−1. Titrations were carried out in three independent measurements for each ligand. Blank measurements were subtracted from collected data. For multivalent fucosides, two blank measurements were performed: titration of the buffer into the cell with PLL3 and titration of the buffer into the buffer. For monosaccharides, the additional blank measurement, the titration of a given ligand into the cell with buffer, was performed. The data were evaluated in software MicroCal PEAQ-ITC Analysis Software (Malvern, UK) by using the global fit method. Integrated heat effects were analyzed by nonlinear regression.
For orientation: In ITC the heat of successive injections is recorded.
One may read the Kd as a measure of binding affinity in units of concentration. A high value points to lower affinity. For the compound `O=C[C@H](O)[C@@H](O)[C@@H](O)[C@H](O)CO` [D-galactose], binding was put at a Kd of 2800 ± 140 µM.

The assay is the same for the next values; noted with them: KD, stoichiometry fixed to 4, 25 °C.
As for `O=C[C@H](O)[C@@H](O)[C@@H](O)[C@H](O)CO` [D-galactose], the Kd is 2700 ± 140 µM.

The same assay, now with this note: KD, stoichiometry fixed to 5, 25 °C.
For the compound `O=C[C@H](O)[C@@H](O)[C@@H](O)[C@H](O)CO` [D-galactose], the Kd worked out at 2600 ± 130 µM.

Still in this assay, the particulars now being: KD, stoichiometry fixed to 6, 25 °C.
The compound `O=C[C@H](O)[C@@H](O)[C@@H](O)[C@H](O)CO` [D-galactose] returned a Kd of 2500 ± 130 µM.

Still in this assay, the particulars now being: KD, stoichiometry fixed to 7, 25 °C.
As to `O=C[C@H](O)[C@@H](O)[C@@H](O)[C@H](O)CO` [D-galactose], binding was characterised by a dissociation constant (Kd) of 2300 ± 130 µM.
